How the values were obtained:
pulmonary artery = assay: Effect of PGE2 on pre-contracted pulmonary artery rings; format: cell-based, human; conditions: tone induced with U-46619 (10-100nM), n=3 donors; cicaprost 0.1-1µM
Description: (§1) Rings (2-4mm internal diameter) were prepared from sections of pulmonary or coronary artery (n=3 each). They were mounted in organ baths under isometric conditions, in gassed Krebs solution (containing indomethacin) at 37°C, and 1-1.5g initial tone.
(§2) After at least 60min equilibration, tone was induced with U-46619 (10-100nM) in pulmonary artery or either phenylephrine (1-10µM) or endothelin-1 (-7M) in coronary artery.

coronary artery = assay: Effect of PGE2 on pre-contracted coronary artery rings; format: cell-based, human; conditions: for relaxation of coronary artery: tone induced with phenylephrine (1-10µM) or endothelin-1, n=3 donors, cicaprost 0.1-1µM
Description: as §1, §2

[1] = test system: human cerebral artery rings; assay: Prostanoid agonist effects on isolated human cerebral artery rings (organ bath, isometric tension); format: cell-based; conditions: for effect on human cerebral artery rings contracted with phenylephrine: smaller diameter vessels, phenylephrine (1 µM), GR32191 (1 µM) present to block TP-receptors, Figures 3-5
Description: (§3) Sections of cerebral artery were removed from different regions of preparations of human cerebral vasculature containing an intact circle of Willis. Intact rings of this cerebral artery, 2-3mm in length, were set up under isometric conditions in 10 ml organ baths under an initial tension of 1g. All tissues were maintained at 37°C and gassed constantly with 95% O2 / 5% CO2. Following a 90 min equilibration period all tissues were challenged with phenylephrine (1 µM), to determine tissue viability. Once a stable contraction had been obtained, tissues were exposed to a range of prostanoid receptor agonists, in the absence or presence of receptor antagonists, to determine the functional role of prostanoid receptors in maintaining arterial tone.

EP4 receptors = molecular target: T1, EP4 receptors (Sus scrofa, UniProt I3LLK4); conditions: antagonism of PGE2-induced relaxation of piglet saphenous vein through blockade of EP4 receptors; cited from earlier work
T1 construct: providing a natural source of the receptors, such as piglet saphenous vein; host or cells: piglet saphenous vein rings (tissue, endogenous receptor)

EP3 = molecular target: T2, EP3 (Homo sapiens, UniProt P43115); conditions: cited from earlier work
T2 sequence (P43115 1-390): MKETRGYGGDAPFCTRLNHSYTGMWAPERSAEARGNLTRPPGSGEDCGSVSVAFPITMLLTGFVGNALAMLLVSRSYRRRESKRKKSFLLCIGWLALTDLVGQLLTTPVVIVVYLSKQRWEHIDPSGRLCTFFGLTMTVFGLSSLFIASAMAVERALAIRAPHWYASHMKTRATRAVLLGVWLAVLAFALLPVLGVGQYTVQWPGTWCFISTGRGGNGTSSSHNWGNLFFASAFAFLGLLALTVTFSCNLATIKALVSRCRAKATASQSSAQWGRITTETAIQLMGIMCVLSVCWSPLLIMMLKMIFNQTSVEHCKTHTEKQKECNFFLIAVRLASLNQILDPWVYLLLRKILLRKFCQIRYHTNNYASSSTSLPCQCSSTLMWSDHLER

EP2 = EP2 (Homo sapiens, UniProt P43116); conditions: cited from earlier work
EP1 = molecular target: T3, EP1 (Homo sapiens, UniProt P34995); conditions: cited from earlier work
T3 sequence (P34995 1-402): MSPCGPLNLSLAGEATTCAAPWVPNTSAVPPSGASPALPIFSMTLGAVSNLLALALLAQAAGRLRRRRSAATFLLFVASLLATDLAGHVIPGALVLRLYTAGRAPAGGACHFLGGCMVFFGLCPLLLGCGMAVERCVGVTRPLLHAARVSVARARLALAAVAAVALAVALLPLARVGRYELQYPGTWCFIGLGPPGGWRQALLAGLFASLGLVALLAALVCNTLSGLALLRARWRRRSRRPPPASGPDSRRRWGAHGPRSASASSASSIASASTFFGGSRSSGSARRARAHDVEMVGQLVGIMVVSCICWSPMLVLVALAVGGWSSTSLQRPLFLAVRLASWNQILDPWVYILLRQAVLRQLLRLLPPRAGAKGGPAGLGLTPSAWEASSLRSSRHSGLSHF

EP4 receptor = molecular target: T4, EP4 receptor (Homo sapiens, UniProt P35408); assay: Antagonism of PGE2-mediated relaxation of phenylephrine pre-contracted middle cerebral artery rings; format: cell-based; conditions: 10 mM AH23848, 45 mins preincubation, P=0.004, 2 tailed T-Test
T4 construct: Intact rings of this cerebral artery, 2-3mm in length, were set up under isometric conditions; from tissue; host or cells: human middle cerebral artery rings (one donor)
Description: as §3
To test the effect of the EP4 receptor antagonist AH23848, cerebral rings were preincubated for 45 mins with 10 mM AH23848.

Sequence of EP2 (P43116 whole entry): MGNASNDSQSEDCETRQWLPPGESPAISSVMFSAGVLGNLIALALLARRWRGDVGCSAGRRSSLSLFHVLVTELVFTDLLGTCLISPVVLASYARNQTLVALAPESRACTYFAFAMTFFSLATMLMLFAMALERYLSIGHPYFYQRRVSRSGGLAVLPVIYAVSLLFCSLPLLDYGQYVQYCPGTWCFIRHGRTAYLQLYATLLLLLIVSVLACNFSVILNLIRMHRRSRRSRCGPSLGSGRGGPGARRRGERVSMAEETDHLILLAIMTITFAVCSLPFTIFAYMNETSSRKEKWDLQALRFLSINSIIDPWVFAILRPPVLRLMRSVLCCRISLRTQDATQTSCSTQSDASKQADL
T1 sequence (I3LLK4 1-489): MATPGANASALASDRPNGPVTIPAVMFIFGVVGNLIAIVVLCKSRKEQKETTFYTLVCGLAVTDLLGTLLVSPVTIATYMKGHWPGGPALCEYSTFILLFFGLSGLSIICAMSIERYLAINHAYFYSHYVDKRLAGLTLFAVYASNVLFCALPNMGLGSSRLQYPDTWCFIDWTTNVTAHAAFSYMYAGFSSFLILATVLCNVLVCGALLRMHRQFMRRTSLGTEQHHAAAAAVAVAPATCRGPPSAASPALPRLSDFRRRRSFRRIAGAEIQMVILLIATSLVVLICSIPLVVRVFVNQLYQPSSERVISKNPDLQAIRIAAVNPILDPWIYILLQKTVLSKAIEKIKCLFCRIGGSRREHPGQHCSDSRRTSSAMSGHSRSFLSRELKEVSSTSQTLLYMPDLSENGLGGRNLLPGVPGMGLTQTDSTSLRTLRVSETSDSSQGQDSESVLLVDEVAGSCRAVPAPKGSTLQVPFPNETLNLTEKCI
T4 sequence (P35408 whole entry): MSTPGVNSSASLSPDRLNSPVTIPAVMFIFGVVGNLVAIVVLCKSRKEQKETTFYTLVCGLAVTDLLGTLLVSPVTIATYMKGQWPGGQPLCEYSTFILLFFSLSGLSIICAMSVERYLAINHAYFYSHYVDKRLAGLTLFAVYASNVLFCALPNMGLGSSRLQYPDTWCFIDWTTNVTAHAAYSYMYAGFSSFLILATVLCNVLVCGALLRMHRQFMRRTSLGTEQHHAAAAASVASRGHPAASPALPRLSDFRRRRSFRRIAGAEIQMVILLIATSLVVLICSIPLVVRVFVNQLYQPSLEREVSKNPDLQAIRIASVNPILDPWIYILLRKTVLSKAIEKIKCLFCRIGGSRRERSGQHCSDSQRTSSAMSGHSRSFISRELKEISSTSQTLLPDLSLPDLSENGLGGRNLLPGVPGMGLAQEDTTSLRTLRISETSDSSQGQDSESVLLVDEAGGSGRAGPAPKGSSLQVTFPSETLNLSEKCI

CCC#CC[C@H](C)[C@H](O)C#C[C@@H]1[C@H]2C/C(=C/COCC(=O)O)C[C@H]2C[C@H]1O [cicaprost]
relaxation of pulmonary artery (pulmonary artery): induced a relaxation in all preparations
relaxation of coronary artery (coronary artery): induced a relaxation in all preparations
effect on human cerebral artery rings contracted with phenylephrine [1]: induced relaxation

CCCCC[C@H](O)/C=C/[C@H]1[C@H](O)CC(=O)[C@@H]1C/C=C\CCCC(=O)O [PGE2, prostaglandin E2]
relaxation of pulmonary artery (pulmonary artery): did not cause relaxation
contraction of coronary artery (coronary artery; pre-contracted coronary artery, likely due to activation of EP3 receptors): A small contraction
relaxation of coronary artery (coronary artery): did not cause relaxation
relaxation of cerebral artery rings pre-contracted with 5-HT ([1]; 5-HT (300nM and 1µM), Figure 2B, 2C): maximal or near maximal relaxation
relaxation of cerebral artery rings pre-contracted with U46619 ([1]; U46619 (100nM), Figure 2A): maximal or near maximal relaxation
concentration at which maximum relaxation occurs ([1]; cerebral blood vessel pre-contracted with phenylephrine, Figure 1): below 10^-6 M
effect on larger vessels ([1]; human cerebral artery, internal diameter > 1mm): concentration-related contraction
effect on smaller vessels ([1]; pre-contracted human cerebral blood vessels, internal diameter < 1mm): potent concentration-related relaxation

O=C(O)CCC/C=C\C[C@H]1[C@@H](OCc2ccc(-c3ccccc3)cc2)CC(=O)[C@@H]1N1CCOCC1 [AH22921]
pA2 (EP4 receptors): 5.3
effect on EP receptor subtype EP3 (EP3): no effect
effect on EP receptor subtype EP2 (EP2): no effect
effect on EP receptor subtype EP1 (EP1): no effect

O=C(O)CCC=CCCC1C(OCc2ccc(-c3ccccc3)cc2)CC(=O)C1N1CCOCC1 (centres unmarked) [AH23848]
pA2 (EP4 receptors): 5.4
effect on EP receptor subtype EP3 (EP3): no effect
effect on EP receptor subtype EP2 (EP2): no effect
shift in the PGE2-mediated relaxation (EP4 receptor): significant rightward shift
effect on EP receptor subtype EP1 (EP1): no effect

CCCCC[C@H](O)/C=C/[C@@H]1[C@@H](C/C=C\CCCC(=O)O)[C@@H](O)C[C@H]1O [PGF2α]
effect on human cerebral artery rings contracted with phenylephrine [1]: without effect

CCCCC[C@H](O)/C=C/[C@H]1C(=O)C[C@H](O)[C@@H]1C/C=C\CCCC(=O)O [PGD2]
effect on human cerebral artery rings contracted with phenylephrine [1]: without effect

CC#CCC(C)[C@H](O)/C=C/[C@@H]1[C@H]2C/C(=C/CCCC(=O)O)C[C@H]2C[C@H]1O (some centres unmarked) [Iloprost]
effect on human cerebral artery rings contracted with phenylephrine [1]: induced relaxation
